Measurements as given in ChEMBL document CHEMBL1201862, “PubChem BioAssay data set” (2004).
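Cells were grown in 96-well plates and exposed to each compound for 48 hours at five concentrations; endpoints were interpolated linearly between bracketing concentrations, or set to the highest concentration if not reached. GI50: concentration for 50% inhibition of growth.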 Calls of active or inactive are those of the source. Cut-off read from the data, not from the text of the source: active = GI50 up to about 1.1 µM and inactive = higher.

Experiments:
Test in all cases: DTP human tumour cell line panel, 48 h
DU-145 = system: DU-145
NCI-H522 = system: NCI-H522
HOP-92 = system: HOP-92
OVCAR-8 = system: OVCAR-8
SK-OV-3 = system: SK-OV-3
COLO 205 = system: COLO 205
MDA-MB-435 = system: MDA-MB-435
SW-620 = system: SW-620
RPMI-8226 = system: RPMI-8226
HCT-116 = system: HCT-116
CCRF-CEM = system: CCRF-CEM
OVCAR-4 = system: OVCAR-4
T47D = system: T47D
A498 = system: A498
MCF7 = system: MCF7
A549 = system: A549
CAKI-1 = system: CAKI-1
SK-MEL-5 = system: SK-MEL-5
SK-MEL-2 = system: SK-MEL-2
HCC 2998 = system: HCC 2998

Structure (SMILES) | GI50 (DU-145) | GI50 (NCI-H522) | GI50 (HOP-92) | GI50 (OVCAR-8) | GI50 (SK-OV-3) | GI50 (COLO 205) | GI50 (MDA-MB-435) | GI50 (SW-620) | GI50 (RPMI-8226) | GI50 (HCT-116) | GI50 (CCRF-CEM) | GI50 (OVCAR-4) | GI50 (T47D) | GI50 (A498) | GI50 (MCF7) | GI50 (A549) | GI50 (CAKI-1) | GI50 (SK-MEL-5) | GI50 (SK-MEL-2) | GI50 (HCC 2998)
Cc1cccc(CNc2[nH]cnc3nncc2-3)c1 | > 100 µM (inactive) | 56.5 µM (inactive) | 40.5 µM (inactive) | 49.1 µM (inactive) | > 100 µM (inactive) | 95.9 µM (inactive) | > 100 µM (inactive) | > 100 µM (inactive) | 44.3 µM (inactive) | > 100 µM (inactive) | > 100 µM (inactive) | 87.7 µM (inactive) | 78.3 µM (inactive) | 40.6 µM (inactive) | > 100 µM (inactive) | > 100 µM (inactive) | 80.7 µM (inactive) | 64.4 µM (inactive) | > 100 µM (inactive) | 
CC(=O)NC1(NC(C)=O)C2CC(C1Cc1ccccc1)C(C)(C)C2C (stereo unspecified) | > 100 µM (inactive) | > 100 µM (inactive) | > 100 µM (inactive) | > 100 µM (inactive) | > 100 µM (inactive) | > 100 µM (inactive) | > 100 µM (inactive) | > 100 µM (inactive) |  | > 100 µM (inactive) | > 100 µM (inactive) | > 100 µM (inactive) | > 100 µM (inactive) | > 100 µM (inactive) | > 100 µM (inactive) | > 100 µM (inactive) | > 100 µM (inactive) | > 100 µM (inactive) |  | > 100 µM (inactive)
Cc1cc(C)n(C(=CC(=O)C(Cl)Cl)n2nc(C)cc2C)n1 | 5.38 µM (inactive) | 1.79 µM (inactive) | 9.31 µM (inactive) | 2.25 µM (inactive) | 23.5 µM (inactive) | 13.8 µM (inactive) | 2.52 µM (inactive) | 3.88 µM (inactive) | 0.871 µM (active) | 1.76 µM (inactive) | 1.85 µM (inactive) | > 100 µM (inactive) | 4.06 µM (inactive) | 53.1 µM (inactive) | 3.94 µM (inactive) | 21.7 µM (inactive) | 4.94 µM (inactive) | 5.98 µM (inactive) | 3.69 µM (inactive) | 
O=C1CC(Br)c2c(Br)sc(Br)c21 (stereo unspecified) | 20.7 µM (inactive) | 12.1 µM (inactive) | 17.7 µM (inactive) | 16.1 µM (inactive) | 28.8 µM (inactive) | 19.8 µM (inactive) | 20 µM (inactive) | 10.5 µM (inactive) | 8.04 µM (inactive) | 13.6 µM (inactive) | 2.51 µM (inactive) | 17.3 µM (inactive) | 17.6 µM (inactive) | 91.4 µM (inactive) | 16.5 µM (inactive) | 29.1 µM (inactive) | 22 µM (inactive) | 19.8 µM (inactive) | 18.5 µM (inactive) | 
COc1ccc2c(c1OC)OC[C@@H](C1=CC(=O)C=C(O)C1=O)C2 | 15.7 µM (inactive) | 2.7 µM (inactive) | 1.89 µM (inactive) | 19.1 µM (inactive) | 16.6 µM (inactive) | 21.3 µM (inactive) | 8.61 µM (inactive) | 8.2 µM (inactive) | 1.91 µM (inactive) | 4.7 µM (inactive) | 1.36 µM (inactive) | 5.53 µM (inactive) | 4.25 µM (inactive) | 15.3 µM (inactive) | 9.91 µM (inactive) | 18.2 µM (inactive) |  | 12.5 µM (inactive) | 15.3 µM (inactive) | 17.2 µM (inactive)
CC1C2CC(C(S(=O)(=O)N3CCOCC3)/C2=N\O)C1(C)C (stereo unspecified) | > 100 µM (inactive) | > 100 µM (inactive) | > 100 µM (inactive) | > 100 µM (inactive) | > 100 µM (inactive) | > 100 µM (inactive) | > 100 µM (inactive) | > 100 µM (inactive) | > 100 µM (inactive) | > 100 µM (inactive) | > 100 µM (inactive) | > 100 µM (inactive) | > 100 µM (inactive) | > 100 µM (inactive) | > 100 µM (inactive) | > 100 µM (inactive) | > 100 µM (inactive) | > 100 µM (inactive) |  | > 100 µM (inactive)
Cc1cnoc1/N=C1\C=C(O)C(=O)c2ccccc21 | 18 µM (inactive) | 34.5 µM (inactive) | 29.4 µM (inactive) | 25.8 µM (inactive) | > 100 µM (inactive) | 35.9 µM (inactive) | 1.31 µM (inactive) | 25.8 µM (inactive) | 15.4 µM (inactive) | 19.9 µM (inactive) | 16.1 µM (inactive) | 20.4 µM (inactive) | 27.9 µM (inactive) | 29 µM (inactive) | 4.26 µM (inactive) | 6.7 µM (inactive) | 28.6 µM (inactive) | 3.46 µM (inactive) | 2.82 µM (inactive) | 
O=C(O)C1(Cc2ccc3c(c2)CCC3)Cc2ccccc2C1 | > 100 µM (inactive) | 42.3 µM (inactive) | 29 µM (inactive) | 63.7 µM (inactive) | 31 µM (inactive) | 30.2 µM (inactive) | > 100 µM (inactive) | > 100 µM (inactive) | 71.1 µM (inactive) | 50.4 µM (inactive) | 62.8 µM (inactive) | 23.3 µM (inactive) | 49.2 µM (inactive) | 36.1 µM (inactive) | > 100 µM (inactive) | 43 µM (inactive) |  | > 100 µM (inactive) | > 100 µM (inactive) | 41.9 µM (inactive)
C=CCNC(=O)CN(CC(=O)O)C1CCCCC1N(CC(=O)O)CC(=O)O (stereo unspecified) | > 100 µM (inactive) | > 100 µM (inactive) | > 100 µM (inactive) | > 100 µM (inactive) | > 100 µM (inactive) | > 100 µM (inactive) | > 100 µM (inactive) | > 100 µM (inactive) | > 100 µM (inactive) | > 100 µM (inactive) | > 100 µM (inactive) | > 100 µM (inactive) | > 100 µM (inactive) | > 100 µM (inactive) | > 100 µM (inactive) | > 100 µM (inactive) | > 100 µM (inactive) | > 100 µM (inactive) |  | > 100 µM (inactive)
CCOc1ccc(NC(=O)/C(=N\NC(C)(C)C)C2C(=O)Nc3ccccc3[S+]2[O-])cc1 (stereo unspecified) | > 100 µM (inactive) | > 100 µM (inactive) | > 100 µM (inactive) | > 100 µM (inactive) | > 100 µM (inactive) | > 100 µM (inactive) | > 100 µM (inactive) | > 100 µM (inactive) | 20.7 µM (inactive) | > 100 µM (inactive) | 94.6 µM (inactive) | > 100 µM (inactive) | > 100 µM (inactive) | > 100 µM (inactive) | > 100 µM (inactive) | > 100 µM (inactive) |  | > 100 µM (inactive) | > 100 µM (inactive) | > 100 µM (inactive)
Cc1cccc2c1[nH]c1[nH]c(=O)[nH]c(=O)c12 | > 100 µM (inactive) | > 100 µM (inactive) | > 100 µM (inactive) | > 100 µM (inactive) | > 100 µM (inactive) | > 100 µM (inactive) | > 100 µM (inactive) | > 100 µM (inactive) | > 100 µM (inactive) | > 100 µM (inactive) | > 100 µM (inactive) | > 100 µM (inactive) | > 100 µM (inactive) | > 100 µM (inactive) | > 100 µM (inactive) | > 100 µM (inactive) | > 100 µM (inactive) | > 100 µM (inactive) | > 100 µM (inactive) | 
N#CC(c1ccccc1)N(CCOCCOCCN(C(=O)c1ccccc1)C(C#N)c1ccccc1)C(=O)c1ccccc1 (stereo unspecified) | > 100 µM (inactive) |  | 43.8 µM (inactive) | > 100 µM (inactive) | > 100 µM (inactive) | > 100 µM (inactive) | 83 µM (inactive) | > 100 µM (inactive) |  | 46.6 µM (inactive) | 58.5 µM (inactive) | 81.7 µM (inactive) | 7.08 µM (inactive) | > 100 µM (inactive) | > 100 µM (inactive) | 98.9 µM (inactive) | > 100 µM (inactive) | 34.9 µM (inactive) | 85.3 µM (inactive) | 94.2 µM (inactive)
O=c1c(C(c2cccc(C(c3c(O)oc4ccccc4c3=O)c3c(O)oc4ccccc4c3=O)c2)c2c(O)oc3ccccc3c2=O)c(O)oc2ccccc12 | 39.4 µM (inactive) | 14.5 µM (inactive) | 27.7 µM (inactive) | 21.1 µM (inactive) | 18.2 µM (inactive) | 86.3 µM (inactive) | 86.9 µM (inactive) | > 100 µM (inactive) | 33.2 µM (inactive) | 25.1 µM (inactive) | 32.4 µM (inactive) |  | 24.3 µM (inactive) | > 100 µM (inactive) | 13.6 µM (inactive) | 60.3 µM (inactive) | 16.9 µM (inactive) | 13.2 µM (inactive) | > 100 µM (inactive) | 15.6 µM (inactive)
O=C1CC(c2ccc(Cl)cc2)Oc2ccccc21 (stereo unspecified) | 69 µM (inactive) |  | 24.7 µM (inactive) | 37.2 µM (inactive) | 19.4 µM (inactive) | 27 µM (inactive) | 36.8 µM (inactive) | 25.7 µM (inactive) | 3.96 µM (inactive) | 37.3 µM (inactive) | 11 µM (inactive) | 43.4 µM (inactive) | 32 µM (inactive) | 26.2 µM (inactive) | 3.83 µM (inactive) |  | 26.3 µM (inactive) | 14 µM (inactive) | 18.8 µM (inactive) | 25.6 µM (inactive)
Nc1ncc(Cc2ccc3c(c2)OCO3)c(N)n1 | > 100 µM (inactive) |  | 53.5 µM (inactive) | > 100 µM (inactive) | > 100 µM (inactive) | > 100 µM (inactive) | > 100 µM (inactive) | > 100 µM (inactive) | > 100 µM (inactive) | > 100 µM (inactive) | > 100 µM (inactive) | > 100 µM (inactive) | 91.4 µM (inactive) | > 100 µM (inactive) | > 100 µM (inactive) | > 100 µM (inactive) | > 100 µM (inactive) | > 100 µM (inactive) |  | 5.83 µM (inactive)
